Test results as given in BigSolDB 2.1.

Cn1c(=O)c2[nH]cnc2n(C)c1=O
Details	solubility (mole fraction)
in acetone, 288.02 K	0.000667
in acetone, 298.15 K	0.00093
in acetone, 308.15 K	0.00124
in acetone, 318.15 K	0.00147
in acetone, 328.1 K	0.0018
in ethanol, 288.01 K	0.0008
in ethanol, 297.95 K	0.00116
in ethanol, 308.01 K	0.00173
in ethanol, 318.11 K	0.00254
in ethanol, 328.09 K	0.00319
in ethyl acetate, 288.02 K	0.000502
in ethyl acetate, 298.15 K	0.000673
in ethyl acetate, 308.15 K	0.000901
in ethyl acetate, 318.15 K	0.0011
in ethyl acetate, 328.1 K	0.00141
in methanol, 288.06 K	0.00077
in methanol, 298.16 K	0.00137
in methanol, 308.16 K	0.00217
in methanol, 318.13 K	0.00298
in methanol, 328.19 K	0.00394
in n-propanol, 288.01 K	0.000912
in n-propanol, 297.95 K	0.00136
in n-propanol, 308.01 K	0.00204
in n-propanol, 318.11 K	0.00313
in n-propanol, 328.09 K	0.00423
in water, 288.06 K	0.000325
in water, 298.16 K	0.00063
in water, 308.16 K	0.000991
in water, 318.13 K	0.00141
in water, 328.19 K	0.00216

Cn1cnc2c1c(=O)[nH]c(=O)n2C
Details	solubility (mole fraction)
in acetone, 288.13 K	1.47e-05
in acetone, 297.99 K	2.23e-05
in acetone, 308.08 K	2.99e-05
in acetone, 318.07 K	4.57e-05
in acetone, 328.17 K	6.77e-05
in ethanol, 288.15 K	1.38e-05
in ethanol, 298.2 K	2.26e-05
in ethanol, 308.19 K	3.85e-05
in ethanol, 318.16 K	6.31e-05
in ethanol, 328.16 K	0.000106
in ethyl acetate, 288.13 K	1.04e-05
in ethyl acetate, 297.99 K	1.59e-05
in ethyl acetate, 308.08 K	2.28e-05
in ethyl acetate, 318.07 K	3.33e-05
in ethyl acetate, 328.17 K	4.94e-05
in methanol, 288.07 K	2.82e-05
in methanol, 298.1 K	4.34e-05
in methanol, 308.93 K	7e-05
in methanol, 318.62 K	0.00011
in methanol, 328.15 K	0.000163
in n-propanol, 288.15 K	1.18e-05
in n-propanol, 298.2 K	2.06e-05
in n-propanol, 308.19 K	3.71e-05
in n-propanol, 318.16 K	6.37e-05
in n-propanol, 328.16 K	0.000109
in water, 288.07 K	3.09e-05
in water, 298.1 K	4.73e-05
in water, 308.93 K	6.93e-05
in water, 318.62 K	0.0001
in water, 328.15 K	0.000145
